This assay is described as follows: pERK AlphaScreen Protocol: KYSE-520 cells (10 k cells/well) were grown in 384-well plate in 20 uL of medium (RPMI-1640, without phenol red, containing 10% FBS) at 37° C. with 5% CO2 overnight. DMSO (control) or increasing concentrations of compounds were diluted in medium, added to the 384-well plate (5 uL/well, final DMSO concentration of 1%), and cells were then incubated with compounds for 2 hr. Phospho-ERK levels were measured using phospho-ERK1/2 AlphaScreen SureFire (PerkinElmer, TGRESB10K) following manufacturer's recommendations. Dose-response curves were analyzed using IC50 regression curve fitting (GeneData Screener). Curves were normalized to a high control without inhibitor (DMSO only), and low control (1 μM selumetinib). The settings on record: KYSE-520, 2 h. For orientation: In Alpha technology, singlet oxygen from a donor bead excites a nearby acceptor bead.

We go through two molecules from ChEMBL document CHEMBL5726901, “Heterocyclic inhibitors of PTPN11” (2019).

For orientation: IC50 means the concentration needed to halve the response being measured. For `COc1ccc(CNc2nccc(C(=O)c3ncc(N4CCC(C)([C@@H](C)N[S+]([O-])C(C)(C)C)CC4)nc3Cl)c2Cl)cc1` (some centres not stated), the IC50 is 100 nM.

With `CC1(N)CCN(c2cnc3c(-c4cc(N)ccc4Cl)n[nH]c3n2)CC1`, the IC50 is 406 nM.
